According to the NIST ThermoML archive (doi:10.1016/j.jct.2015.03.019):
“And” between values parts separate entries of the source, which are not always exact repeats. Equal values may be shown once. ± gives the expanded uncertainty stated by the source.

Assay: molar heat capacity at constant pressure
Details: 101.33 kPa, Small (less than 1 g) adiabatic calorimetry

CC(C)(C)c1ccc(Oc2ccccc2)cc1 [4-tert-butylphenyl phenyl ether]
molar heat capacity at constant pressure
Details	Crystal	Liquid
120 K	144.42 ± 0.67 J/K/mol	–
120.73 K	145 ± 0.83 J/K/mol	–
121.96 K	146.09 ± 0.83 J/K/mol	–
123.18 K	147.08 ± 0.83 J/K/mol	–
124.42 K	148.25 ± 0.83 J/K/mol	–
125.65 K	149.33 ± 0.83 J/K/mol	–
126.9 K	150.41 ± 0.83 J/K/mol	–
128.13 K	151.57 ± 0.83 J/K/mol	–
129.37 K	152.57 ± 0.83 J/K/mol	–
130 K	153.32 ± 0.75 J/K/mol	–
130.6 K	153.82 ± 0.83 J/K/mol	–
131.84 K	154.9 ± 0.83 J/K/mol	–
133.08 K	155.9 ± 0.83 J/K/mol	–
134.32 K	157.23 ± 0.83 J/K/mol	–
135.56 K	158.22 ± 0.83 J/K/mol	–
136.81 K	159.31 ± 0.83 J/K/mol	–
138.05 K	160.3 ± 0.91 J/K/mol	–
139.3 K	161.47 ± 0.91 J/K/mol	–
140 K	161.97 ± 0.75 J/K/mol	–
140.55 K	162.46 ± 0.91 J/K/mol	–
141.8 K	163.38 ± 0.91 J/K/mol	–
143.04 K	164.54 ± 0.91 J/K/mol	–
144.3 K	165.79 ± 0.91 J/K/mol	–
145.55 K	166.71 ± 0.91 J/K/mol	–
146.83 K	167.95 ± 0.91 J/K/mol	–
148.09 K	169.12 ± 0.91 J/K/mol	–
149.35 K	169.95 ± 0.91 J/K/mol	–
150 K	170.61 ± 0.75 J/K/mol	–
150.61 K	171.11 ± 0.91 J/K/mol	–
151.87 K	172.28 ± 0.91 J/K/mol	–
153.13 K	173.44 ± 0.91 J/K/mol	–
154.39 K	174.44 ± 0.91 J/K/mol	–
155.66 K	175.27 ± 0.91 J/K/mol	–
156.93 K	176.43 ± 0.91 J/K/mol	–
158.2 K	177.6 ± 1 J/K/mol	–
159.47 K	178.43 ± 1 J/K/mol	–
160 K	179.01 ± 0.75 J/K/mol	–
160.74 K	179.34 ± 1 J/K/mol	–
162.02 K	180.67 ± 1 J/K/mol	–
163.29 K	181.92 ± 1 J/K/mol	–
164.57 K	182.92 ± 1 J/K/mol	–
165.84 K	184.08 ± 1 J/K/mol	–
167.17 K	185.33 ± 1 J/K/mol	–
168.45 K	186.16 ± 1 J/K/mol	–
169.73 K	187.16 ± 1 J/K/mol	–
170 K	187.41 ± 0.83 J/K/mol	–
171.02 K	188.24 ± 1 J/K/mol	–
172.31 K	189.4 ± 1 J/K/mol	–
173.6 K	190.48 ± 1 J/K/mol	–
174.89 K	191.57 ± 1 J/K/mol	–
176.18 K	192.9 ± 1 J/K/mol	–
177.47 K	193.64 ± 1 J/K/mol	–
178.77 K	194.81 ± 1.1 J/K/mol	–
180 K	195.72 ± 0.83 J/K/mol	–
180.07 K	195.97 ± 1.1 J/K/mol	–
181.37 K	197.05 ± 1.1 J/K/mol	–
183.98 K	199.21 ± 1.1 J/K/mol	–
185.29 K	200.46 ± 1.1 J/K/mol	–
186.59 K	201.63 ± 1.1 J/K/mol	–
187.96 K	202.71 ± 1.1 J/K/mol	–
189.28 K	203.54 ± 1.1 J/K/mol	–
190 K	204.12 ± 0.83 J/K/mol	–
190.59 K	204.62 ± 1.1 J/K/mol	–
191.9 K	205.95 ± 1.1 J/K/mol	–
193.22 K	207.03 ± 1.1 J/K/mol	–
194.54 K	208.28 ± 1.1 J/K/mol	–
195.86 K	209.36 ± 1.1 J/K/mol	–
197.19 K	210.52 ± 1.1 J/K/mol	–
198.51 K	211.69 ± 1.2 J/K/mol	–
199.84 K	212.52 ± 1.2 J/K/mol	–
200 K	212.52 ± 0.83 J/K/mol	–
202.54 K	214.35 ± 1.2 J/K/mol	–
203.91 K	215.51 ± 1.2 J/K/mol	–
205.26 K	216.84 ± 1.2 J/K/mol	–
206.62 K	217.92 ± 1.2 J/K/mol	–
209.43 K	220.42 ± 1.2 J/K/mol	–
210 K	221.08 ± 0.91 J/K/mol	–
212.14 K	222.5 ± 1.2 J/K/mol	–
213.5 K	223.66 ± 1.2 J/K/mol	–
214.85 K	224.82 ± 1.2 J/K/mol	–
216.21 K	225.99 ± 1.2 J/K/mol	–
218.93 K	228.56 ± 1.2 J/K/mol	–
220 K	229.81 ± 0.91 J/K/mol	–
220.29 K	230.06 ± 1.2 J/K/mol	–
221.64 K	231.06 ± 1.2 J/K/mol	–
222.99 K	232.06 ± 1.2 J/K/mol	–
224.34 K	233.39 ± 1.2 J/K/mol	–
225.69 K	234.72 ± 1.2 J/K/mol	–
227.04 K	235.72 ± 1.2 J/K/mol	–
228.4 K	237.05 ± 1.2 J/K/mol	–
229.74 K	238.29 ± 1.2 J/K/mol	–
230 K	238.71 ± 1 J/K/mol	–
231.18 K	240.12 ± 1.2 J/K/mol	–
236.59 K	245.11 ± 1.2 J/K/mol	–
237.93 K	246.03 ± 1.3 J/K/mol	–
239.28 K	247.27 ± 1.3 J/K/mol	–
240 K	247.77 ± 1 J/K/mol	–
240.62 K	248.44 ± 1.3 J/K/mol	–
241.97 K	249.68 ± 1.3 J/K/mol	–
243.31 K	250.76 ± 1.3 J/K/mol	–
244.65 K	252.18 ± 1.3 J/K/mol	–
248.66 K	256.25 ± 1.3 J/K/mol	–
250 K	257.67 ± 1.3 J/K/mol and 257.5 ± 1 J/K/mol	–
251.33 K	258.91 ± 1.3 J/K/mol	–
252.75 K	260.49 ± 1.3 J/K/mol	–
254.09 K	261.41 ± 1.3 J/K/mol	–
255.42 K	262.82 ± 1.4 J/K/mol	–
256.75 K	264.07 ± 1.4 J/K/mol	–
260 K	267.48 ± 1 J/K/mol	–
260.74 K	268.39 ± 1.4 J/K/mol	–
262.06 K	269.56 ± 1.4 J/K/mol	–
263.38 K	270.8 ± 1.4 J/K/mol	–
264.71 K	272.05 ± 1.4 J/K/mol	–
266.03 K	273.38 ± 1.4 J/K/mol	–
267.35 K	274.54 ± 1.4 J/K/mol	–
268.67 K	275.96 ± 1.4 J/K/mol	–
269.98 K	276.87 ± 1.4 J/K/mol	–
270 K	277.2 ± 1.1 J/K/mol	–
271.3 K	278.45 ± 1.4 J/K/mol	–
272.62 K	279.7 ± 1.5 J/K/mol	–
276.62 K	283.69 ± 1.5 J/K/mol	–
277.92 K	285.02 ± 1.5 J/K/mol	–
279.22 K	286.27 ± 1.5 J/K/mol	–
280 K	287.1 ± 1.1 J/K/mol	–
280.53 K	287.51 ± 1.5 J/K/mol	–
281.83 K	289.01 ± 1.5 J/K/mol	–
283.13 K	290.09 ± 1.5 J/K/mol	–
284.43 K	291.09 ± 1.5 J/K/mol	–
288.3 K	295.16 ± 1.5 J/K/mol	–
289.59 K	296.49 ± 1.6 J/K/mol	–
290 K	296.41 ± 1.2 J/K/mol	–
290.87 K	297.33 ± 1.6 J/K/mol	–
292.15 K	298.24 ± 1.6 J/K/mol	–
293.43 K	298.91 ± 1.6 J/K/mol	–
294.71 K	299.82 ± 1.6 J/K/mol	–
298.15 K	302.98 ± 1.2 J/K/mol	–
299.77 K	304.06 ± 1.6 J/K/mol	–
300 K	304.48 ± 1.2 J/K/mol	–
301.26 K	305.47 ± 1.6 J/K/mol	–
302.92 K	307.05 ± 1.6 J/K/mol	–
304.58 K	308.88 ± 1.6 J/K/mol	–
306.25 K	310.3 ± 1.6 J/K/mol	–
309.6 K	312.87 ± 1.6 J/K/mol	–
310 K	313.21 ± 1.2 J/K/mol	–
311.29 K	315.62 ± 1.7 J/K/mol	–
314.7 K	320.94 ± 1.7 J/K/mol	–
316.41 K	322.19 ± 1.7 J/K/mol	–
318.13 K	325.68 ± 1.7 J/K/mol	–
319.86 K	330.17 ± 1.7 J/K/mol	–
320 K	321.69 ± 1.2 J/K/mol	–
321.61 K	331 ± 1.7 J/K/mol	–
327.84 K	328.26 ± 1.2 J/K/mol	384.38 ± 1.4 J/K/mol
330 K	–	386.29 ± 1.4 J/K/mol
334.3 K	–	391.36 ± 2 J/K/mol
340 K	–	394.94 ± 1.5 J/K/mol
340.65 K	–	394.52 ± 2 J/K/mol
347.01 K	–	398.93 ± 2.1 J/K/mol
350 K	–	403.25 ± 1.7 J/K/mol
351.17 K	–	405 ± 2.1 J/K/mol
353.12 K	–	407.24 ± 2.1 J/K/mol
355.08 K	–	408.24 ± 2.1 J/K/mol
357.06 K	–	409.82 ± 2.1 J/K/mol
359.07 K	–	410.65 ± 2.1 J/K/mol
360 K	–	411.57 ± 1.7 J/K/mol
361.08 K	–	411.57 ± 2.1 J/K/mol
363.12 K	–	412.65 ± 2.1 J/K/mol
365.18 K	–	413.4 ± 2.1 J/K/mol
367.25 K	–	414.06 ± 2.1 J/K/mol
369.35 K	–	414.89 ± 2.1 J/K/mol
370 K	–	414.89 ± 1.7 J/K/mol
371.48 K	–	415.81 ± 2.2 J/K/mol
